Source: patent US6806229B1, “Herbicidally active pyridine sulfonyl urea derivatives” (LG Life Sciences, priority 2003, dated 2004)

What follows are molecules tested on Oryza sativa (assay: Phytotoxicity to rice (direct-seeded and transplanted) in paddy condition, greenhouse pot test). Conditions: 10 g/ha; direct-seeded rice, treated 5 days after sowing; visual rating after two weeks.
Format: in vivo
From the text: (§1) Pots having a surface area of 150 cm^2 were filled with a small amount of fertilizer and sterilized paddy field soil in a muddy state with a depth of 5 cm. Five (5) seeds of pre-germinated rice were directly sown on the soil surface and three (3) rice seedlings (2˜3 leaves) prepared in advance were transplanted in a depth of 2 cm in each pot. In another pot, seeds of barnyardgrass were sown and incorporated into the surface layer of soil. After sowing and transplanting of rice plant and sowing of barnyardgrass, the pots were flooded with water 3 cm deep and kept in a greenhouse. The rice plant was treated with the chemicals 5 days after sowing or transplanting, and barnyardgrass was treated with the chemicals at the pre-emergence (5 days after from sowing) and post-emergence stage (at the three-leaf stage, usually after 15 days from sowing).
(§2) Suitable herbicidal compositions were prepared by mixing and dissolving 1 part by weight of the active compound with 5 parts by weight of acetone and 1 part by weight of alkylaryl polyglycolether as an emulsifier and then diluting with water to the predetermined concentration. Application was made by dropping the herbicide solutions onto the water surface of the pots.
COc1cc(OC)nc(NC(=O)NS(=O)(=O)c2cccnc2[C@@H](OC(=O)CCO)[C@H](C)F)n1 [Com. 3] was tested, and the “Phytotoxicity, Oryza sativa, Seed” value was 0%. For COc1cc(OC)nc(NC(=O)NS(=O)(=O)c2cccnc2[C@@H](O)[C@H](C)F)n1 [Standard Compound C, reference compound], the “Phytotoxicity, Oryza sativa, Seed” value was 10%.

Same assay, conditions: 10 g/ha; transplanted rice seedlings, treated 5 days after transplanting; visual rating after two weeks
For COc1cc(OC)nc(NC(=O)NS(=O)(=O)c2cccnc2[C@@H](OC(=O)CCO)[C@H](C)F)n1 [Com. 3], the “Phytotoxicity, Oryza sativa, Transplanted” value (“Phytotoxicity … Transplanted” below) was 5%. COc1cc(OC)nc(NC(=O)NS(=O)(=O)c2cccnc2[C@@H](O)[C@H](C)F)n1 [Standard Compound C, reference compound] was tested, and the “Phytotoxicity … Transplanted” value was 10%.

Same assay, conditions: 20 g/ha; direct-seeded rice, treated 5 days after sowing; visual rating after two weeks
For COc1cc(OC)nc(NC(=O)NS(=O)(=O)c2cccnc2[C@@H](OC(=O)CCO)[C@H](C)F)n1 [Com. 3], the “Phytotoxicity, Oryza sativa, Seed” value was 10%. With COc1cc(OC)nc(NC(=O)NS(=O)(=O)c2cccnc2[C@@H](O)[C@H](C)F)n1 [Standard Compound C, reference compound] the “Phytotoxicity, Oryza sativa, Seed” value was 20%.

Same assay, conditions: 20 g/ha; transplanted rice seedlings, treated 5 days after transplanting; visual rating after two weeks
For COc1cc(OC)nc(NC(=O)NS(=O)(=O)c2cccnc2[C@@H](OC(=O)CCO)[C@H](C)F)n1 [Com. 3], the “Phytotoxicity … Transplanted” value was 10%. In the case of COc1cc(OC)nc(NC(=O)NS(=O)(=O)c2cccnc2[C@@H](O)[C@H](C)F)n1 [Standard Compound C, reference compound], the “Phytotoxicity … Transplanted” value is reported as 20%.

Same assay, conditions: 40 g/ha; direct-seeded rice, treated 5 days after sowing; visual rating after two weeks
With COc1cc(OC)nc(NC(=O)NS(=O)(=O)c2cccnc2[C@@H](OC(=O)CCO)[C@H](C)F)n1 [Com. 3] the “Phytotoxicity, Oryza sativa, Seed” value was 30%. For COc1cc(OC)nc(NC(=O)NS(=O)(=O)c2cccnc2[C@@H](O)[C@H](C)F)n1 [Standard Compound C, reference compound], the “Phytotoxicity, Oryza sativa, Seed” value was 30%.

Same assay, conditions: 40 g/ha; transplanted rice seedlings, treated 5 days after transplanting; visual rating after two weeks
In the case of COc1cc(OC)nc(NC(=O)NS(=O)(=O)c2cccnc2[C@@H](OC(=O)CCO)[C@H](C)F)n1 [Com. 3], the “Phytotoxicity … Transplanted” value is reported as 20%. In the case of COc1cc(OC)nc(NC(=O)NS(=O)(=O)c2cccnc2[C@@H](O)[C@H](C)F)n1 [Standard Compound C, reference compound], the “Phytotoxicity … Transplanted” value is reported as 30%.

Same assay, conditions: 80 g/ha; direct-seeded rice, treated 5 days after sowing; visual rating after two weeks, 0 = none, 100 = complete death
COc1cc(OC)nc(NC(=O)NS(=O)(=O)c2cccnc2[C@@H](OC(=O)CCO)[C@H](C)F)n1 [Com. 3] was tested, and the “Phytotoxicity, Oryza sativa, Seed” value was 30%. COc1cc(OC)nc(NC(=O)NS(=O)(=O)c2cccnc2[C@@H](O)[C@H](C)F)n1 [Standard Compound C, reference compound] was tested, and the “Phytotoxicity, Oryza sativa, Seed” value was 70%.

Same assay, conditions: 80 g/ha; transplanted rice seedlings, treated 5 days after transplanting; visual rating after two weeks
In the case of COc1cc(OC)nc(NC(=O)NS(=O)(=O)c2cccnc2[C@@H](OC(=O)CCO)[C@H](C)F)n1 [Com. 3], the “Phytotoxicity … Transplanted” value is reported as 20%. In the case of COc1cc(OC)nc(NC(=O)NS(=O)(=O)c2cccnc2[C@@H](O)[C@H](C)F)n1 [Standard Compound C, reference compound], the “Phytotoxicity … Transplanted” value is reported as 50%.

Each molecule was assayed on Echinochloa crus-galli (assay: Herbicidal activity to barnyardgrass in paddy condition, pre- and post-emergence, greenhouse pot test). Conditions: Echinochloa crus-galli, 336 h; 5 g/ha; post-emergence, three-leaf stage; visual rating after two weeks; read-out: Herbicidal activity, Echinochloa crus-galli, Post-emergence (3-Leaf stage).
Format: in vivo
From the text: as §1, §2
COc1cc(OC)nc(NC(=O)NS(=O)(=O)c2cccnc2[C@@H](OC(=O)CCO)[C@H](C)F)n1 [Com. 3] gave a pest or weed control at 5 g/ha of 60%. COc1cc(OC)nc(NC(=O)NS(=O)(=O)c2cccnc2[C@@H](O)[C@H](C)F)n1 [Standard Compound C, reference compound] gave a pest or weed control at 5 g/ha of 60%.

Same assay, conditions: Echinochloa crus-galli, 336 h; 5 g/ha; pre-emergence (5 days after sowing); visual rating after two weeks; read-out: Herbicidal activity, Echinochloa crus-galli, Pre-emergence
Work on COc1cc(OC)nc(NC(=O)NS(=O)(=O)c2cccnc2[C@@H](OC(=O)CCO)[C@H](C)F)n1 [Com. 3] yielded a pest or weed control at 5 g/ha of 60%. COc1cc(OC)nc(NC(=O)NS(=O)(=O)c2cccnc2[C@@H](O)[C@H](C)F)n1 [Standard Compound C, reference compound] was tested, and the pest or weed control at 5 g/ha was 40%.

Same assay, conditions: Echinochloa crus-galli, 336 h; 10 g/ha; post-emergence, three-leaf stage; visual rating after two weeks; read-out: Herbicidal activity, Echinochloa crus-galli, Post-emergence (3-Leaf stage)
In the case of COc1cc(OC)nc(NC(=O)NS(=O)(=O)c2cccnc2[C@@H](OC(=O)CCO)[C@H](C)F)n1 [Com. 3], the pest or weed control at 10 g/ha is reported as 80%. COc1cc(OC)nc(NC(=O)NS(=O)(=O)c2cccnc2[C@@H](O)[C@H](C)F)n1 [Standard Compound C, reference compound] was tested, and the pest or weed control at 10 g/ha was 90%.

Same assay, conditions: Echinochloa crus-galli, 336 h; 10 g/ha; pre-emergence (5 days after sowing); visual rating after two weeks; read-out: Herbicidal activity, Echinochloa crus-galli, Pre-emergence
COc1cc(OC)nc(NC(=O)NS(=O)(=O)c2cccnc2[C@@H](OC(=O)CCO)[C@H](C)F)n1 [Com. 3] was tested, and the pest or weed control at 10 g/ha was 90%. With COc1cc(OC)nc(NC(=O)NS(=O)(=O)c2cccnc2[C@@H](O)[C@H](C)F)n1 [Standard Compound C, reference compound] the pest or weed control at 10 g/ha was 100%.

Same assay, conditions: Echinochloa crus-galli, 336 h; 20 g/ha; post-emergence, three-leaf stage; visual rating after two weeks; read-out: Herbicidal activity, Echinochloa crus-galli, Post-emergence (3-Leaf stage)
COc1cc(OC)nc(NC(=O)NS(=O)(=O)c2cccnc2[C@@H](OC(=O)CCO)[C@H](C)F)n1 [Com. 3] was tested, and the pest or weed control at 20 g/ha was 90%. COc1cc(OC)nc(NC(=O)NS(=O)(=O)c2cccnc2[C@@H](O)[C@H](C)F)n1 [Standard Compound C, reference compound] gave a pest or weed control at 20 g/ha of 100%.

Same assay, conditions: Echinochloa crus-galli, 336 h; 20 g/ha; pre-emergence (5 days after sowing); visual rating after two weeks; read-out: Herbicidal activity, Echinochloa crus-galli, Pre-emergence
For COc1cc(OC)nc(NC(=O)NS(=O)(=O)c2cccnc2[C@@H](OC(=O)CCO)[C@H](C)F)n1 [Com. 3], the pest or weed control at 20 g/ha was 95%. COc1cc(OC)nc(NC(=O)NS(=O)(=O)c2cccnc2[C@@H](O)[C@H](C)F)n1 [Standard Compound C, reference compound] gave a pest or weed control at 20 g/ha of 100%.

Same assay, conditions: Echinochloa crus-galli, 336 h; 30 g/ha; post-emergence, three-leaf stage; visual rating after two weeks; read-out: Herbicidal activity, Echinochloa crus-galli, Post-emergence (3-Leaf stage)
COc1cc(OC)nc(NC(=O)NS(=O)(=O)c2cccnc2[C@@H](OC(=O)CCO)[C@H](C)F)n1 [Com. 3] was tested, and the pest or weed control at 30 g/ha was 100%. COc1cc(OC)nc(NC(=O)NS(=O)(=O)c2cccnc2[C@@H](O)[C@H](C)F)n1 [Standard Compound C, reference compound] gave a pest or weed control at 30 g/ha of 100%.

Same assay, conditions: Echinochloa crus-galli, 336 h; 30 g/ha; pre-emergence (5 days after sowing); visual rating after two weeks, 0 = no activity, 100 = complete death; read-out: Herbicidal activity, Echinochloa crus-galli, Pre-emergence
COc1cc(OC)nc(NC(=O)NS(=O)(=O)c2cccnc2[C@@H](OC(=O)CCO)[C@H](C)F)n1 [Com. 3] gave a pest or weed control at 30 g/ha of 100%. Work on COc1cc(OC)nc(NC(=O)NS(=O)(=O)c2cccnc2[C@@H](O)[C@H](C)F)n1 [Standard Compound C, reference compound] yielded a pest or weed control at 30 g/ha of 100%.
